{
  "source": "patent US20200138750A1",
  "about": "“Use of Mustard Seed Oil (Allyl Isothiocyanate) to relieve headache pain” (priority 2018, published 2020)",
  "system": "users suffering with headaches",
  "experiment": "Inhalation of pure AITC vapor through the nostrils by users with headaches",
  "type": "in vivo",
  "method": "In the present invention AITC is taken in to its purest form. To treat headache instantly, Purest AITC needs to be inhaled deeply for up to 5 seconds in each nostril. If it is taken correctly, due to its pungency and potency, the vapor of AITC will instantly felt inside on the top of the crown of the user's head.\nIf AITC is inhaled properly and as directed, most users will be out of irritation in less than 2 minutes.\nIn current studies we have used pure AITC in above mentioned quantity into small dark thick glass vials with aluminum seal and tight screw caps. The bottles are also very small mouth.",
  "data": [
    {"molecule": "C=CCN=C=S", "note": "[AITC, Allyl isothiocyanate]", "values": [
      {"measurement": "time until users are out of irritation after inhalation", "setting": "AITC inhaled properly and as directed, most users", "result": "less than 2 minutes"},
      {"measurement": "nasal mucus, sinus pressure and sinus headache", "setting": "inhalation", "result": "relives sinusitis pressure and sinus headaches"},
      {"measurement": "addiction or rebound headaches", "setting": "inhalation remedy", "result": "does not lead to addiction or rebound headaches"},
      {"measurement": "side effects", "setting": "inhalation remedy", "result": "does not have any side effects"},
      {"measurement": "headache relief", "setting": "inhalation, users with headaches", "result": "headache is also relieved"},
      {"measurement": "irritation and lachrymal effect on deep inhalation", "setting": "inhaled deeply", "result": "instantly irritated and most likely get tears from eyes"},
      {"measurement": "natural versus synthetic AITC in treating headaches", "setting": "natural (from mustard seeds, horseradish or wasabi) vs synthetic (99.9% pure)", "result": "almost same result in treating headaches"},
      {"measurement": "time to relief from headache pain", "setting": "pure AITC inhaled as directed, most users suffering with headaches", "result": "relived from pain in seconds in most cases or up to couple of minutes"}
    ]}
  ]
}
